The test system of assay [1] is VP22 intercellular exchange. Conditions: destruction of the filamentary actin; cited from earlier work.
In assay [2] the test system is TNTs between PC12 cells. The assay is classed as cell-based, rat.
The test system of assay [3] is PC12 cells. Nature of the assay: Thymidin G1/S cell cycle block: mitosis stadia and TNT formation. Conditions: 2.5 mM thymidin, 14 hours before passage; analysed ca. 1 hour after passage. The assay is classed as cell-based, rat. On the procedure:
FIG. 12a—fluorescence microscopy image of PC12 cells ca. 1 hour after cell passage and staining with WGA, 20 minutes fixing in 4% paraformaldehyde/4% sucrose, 3 minutes treatment with 0.2% TRITON™ X-100 and nucleus staining with Dapi—left images in (a): the 14 hour long treatment of the cells before passage with 2.5 mM thymidin in the cell culture medium blocked the cells in the G1/S phase of the cell cycle and prevented a division of the cells; right images in (a): in non-treated PC12 cells (controls) there can be observed in the nucleus staining mitosis stadia (arrows). Despite the absence of mitosis stadia the thymidin treated PC12 cells form TNTs (arrow tips), (bar: 20 micrometer);
Via a three-dimensional videomicroscopic analysis of suprarenal medulla cells in accordance with Example 1 point 2a, b there was detected the formation of an organized TNT based network between the cells, via which a syncytium arises (FIGS. 2e, f, FIGS. 3n-q2, FIGS. 4a-c) and organelles can be unidirectionally transferred (FIGS. 4d-h, FIG. 14). TNTs were, in accordance with Example 16 found in all to date investigated cells structure systems such as PC12 cells, HEK cells (FIG. 16a) and primary cultures of the medulla (FIG. 16b) and of the hippocampus (FIG. 16c). With a special colouring method, moreover, very long TNTs have been found. […]

Assay [4] concerns PC12 cells. Nature of the assay: Filipin staining of cellular cholesterol content. The assay is classed as cell-based, rat. Conditions: 5 millimolar methyl-β-cyclodextrin; filipin fluorescence, mean grey scale values. On the procedure: FIG. 18—the effect of cholesterol on the stability of TNTs. Two hours after passage of PC12 cells, the cell culture medium was exchanged for DMEM with 5, 8 or 10 millimolar saccharose (controls) or DMEM with 5, 8 or 10 mM methyl-β-cyclodextrin and the cells incubated for half an hour at 30° C. and 10% CO2. After the addition of WGA a three-dimensional analysis of 10 randomly selected microscopic fields was carried out (Olympus IX70, 100× objective, […]™ System, Piezo-z-stepper, in each case 40 sections) and the number of TNTs determined. […] Quantifications yielded a strong reduction of the TNT number with increasing methyl-β-cyclodextrin concentration; 40% reduction at 5 millimolar methyl-β-cyclodextrin; 93% reduction at 8 millimolar methyl-β-cyclodextrin; 100% at 10 millimolar methyl-β-cyclodextrin (c1). […] For this purpose, the methyl-β-cyclodextrin or saccharose containing DMEM of the analysed cell was exchanged with DMEM having 20 microgramm per millilitre filipin and 15 minutes later the intensity of the fluorescence staining analysed in vivo with a FITC/TRITC/DAPI filter set (Chroma, Brattleboro). In detail, after excitation at 400 nm four randomly selected microscopic fields were imaged and the mean grey scale values determined. […]

The subject of assay [5] is TNTs between PC12 cells. Nature of the assay: Number of TNTs in PC12 cells after cholesterol extraction (WGA staining, three-dimensional microscopy). It counts as cell-based, rat. Conditions: half an hour, 2 h after passage, vs saccharose controls.

Turning to `C=C1[C@@H](C)[C@H]2[C@H](Cc3ccccc3)NC(=O)[C@]23[C@H](OC(C)=O)/C=C/[C@@](C)(O)C(=O)[C@@H](C)C/C=C/[C@H]3[C@@H]1O` [cytochalasin D], the “intercellular exchange of VP22” value in assay [1] was “can be prevented”.

As to `C/C1=C/C(=O)O[C@@H]2C[C@@H](CC[C@H](C)/C=C\CC1)O[C@@](O)([C@@H]1CSC(=O)N1)C2` [latrunculin B], the “effect on TNT formation and on TNTs present” value in the assay on TNTs between PC12 cells [2] was “TNTs no longer form and TNTs present are destroyed”.

`Cc1cn([C@H]2C[C@H](O)[C@@H](CO)O2)c(=O)[nH]c1=O` [thymidin]: in the assay with PC12 cells [3], the “TNT formation retained in comparison with the controls” value amounted to 86.5% and the “number of mitosis stadia in comparison with the controls” value turned out to be 20%.

On to methyl-β-cyclodextrin, for which the “reduction of the cellular cholesterol content” value in the assay on PC12 cells [4] is 20%. Further, the “reduction of the TNT number” value in the assay with TNTs between PC12 cells [5] (8 millimolar methyl-β-cyclodextrin in DMEM) stood at 93%; with TNTs between PC12 cells [5] (10 millimolar methyl-β-cyclodextrin in DMEM), 100%.
